# Assay results as given in patent publication US9708370B2, “Azapeptides as CD36 binding compounds” (VALORISATION-RECHERCHE, LIMITED PARTNERSHIP, priority 2007, dated 2017).
# Starred links: 1 amine or outer side, 2 acyl side, 3 side chain; linkers in the order of their positions; H or OH if unused. Non-standard residues stand in square brackets, D forms with d. Residues, ends and D or L forms follow the SMILES beside them. *: point of attachment. X4 = O=C(N(Cc1ccc(-c2ccccc2)cc1)N[*:1])[*:2]; azaTyr = O=C(N(Cc1ccc(O)cc1)N[*:1])[*:2]; X3 = O=C(N(Cc1cccc2ccccc12)N[*:1])[*:2]; azaPhe = O=C(N(Cc1ccccc1)N[*:1])[*:2]; azaLeu = CC(C)CN(N[*:1])C(=O)[*:2]; azaPro = O=C(N1CCCN1[*:1])[*:2]; AzaAla = CN(N[*:1])C(=O)[*:2]; X5 = O=C(CC1CNc2ccccc21)*; azaGly = NNC(=O)O
# Biological target: human GHS-R1a (Homo sapiens (Human), UniProt Q92847)
# Assay: GHS-R1a binding assay, competition with 125I-ghrelin on membranes of LLC-PK1 cells expressing human GHS-R1a
# Conditions: Table 4; LLCPK-1 membranes overexpressing GHS-R1a; radioiodinated (1-28) rat ghrelin as tracer; read-out: EC50 (text: IC50 values from competition curves in GHS-R1a radioreceptor assay)
# Protocol: Rat ghrelin was radio iodinated with Na^125I using the lodo-Beads iodination reagent (Pierce #28665). Briefly, an lodo-bead was incubated with 2 mCi of Na^125I (Amersham) in 100 μL of 50 mM sodium phosphate buffer, pH 7.0 for 5 min at 22° C. The reaction was started by adding 20 nmol of the peptide (1 mM in 0.1 M acetic acid). The tube was incubated for 10 min at 22° C. The iodination was terminated by adding 1 mL of 0.1% TFA. The mono-iodinated peptide was purified by reverse-phase HPLC using a Vydac C18 ([…]) column (30 cm×0.39 cm) in combination with a binary elution system of (A) 0.1% TFA in H2O and (B) 0.1% TFA, 10% H2O, 90% acetonitrile. Fractions of 0.5 mL were collected and analyzed by its radioactive content.
# Cells (1.4×10^6) were plated in 100 mm plates and transfected 24 h later with pCDNA3.1-hGHS-R1a (UMR cDNA Resource Center #GHSR0A0000) following the CaHPO4 precipitation method. Briefly, 40 μg of plasmid DNA was diluted in 500 μL of sterile H2O and added to an equal volume of a 4× CaCl2, pH 7.9 solution (2 mM Tris-HCl, 0.2 mM EDTA, 500 mM CaCl2). The mixture was then added slowly with air bubbles to 1 mL of 2× Hepes-buffered saline, pH 7.1 (50 mM Hepes, 280 mM NaCl, 1.5 mM Na2HPO4). After 30 min at room temperature, 1 mL was distributed evenly over the cells and let overnight. The medium was changed the next morning and the membrane preparation was made two days later.
# Cells were washed twice with PBS and once with ice-cold homogenization buffer (50 mM Tris-HCl, pH 7.3, 5 mM MgCl2, 2.5 mM EDTA, 30 μg/ml bacitracin). Cells were scraped and harvested in 1.5 mL tubes. Cells were then lysed by temperature shock with two freeze/thaw cycles in liquid nitrogen. The tubes were centrifuged at 14000 g for 20 min. Pellets were resuspended in homogenization buffer and stored at −80° C. until used. Total protein concentrations were determined with the BCA protein assay kit (Pierce).
# Competition experiments were performed by incubating 50 μg of LLC-PK1 membranes expressing human GHS-R1a with 15 fmol of ^125I-Ghrelin and increasing concentrations of unlabeled ghrelin or with increasing concentrations of azapeptides derivatives in 0.5 mL of binding buffer. Bound radiolabelled ligand was separated from free by filtration on Whatman GF/C filters pretreated with a 1% polyethylenimine solution. Filters were washed with 2×3 mL of washing buffer (50 mM Tris-HCl, pH 7.3, 10 mM MgCl2, 2.5 mM EDTA, 0.015% Triton X-100). Filters were counted in a LKB gamma counter. Curves were analyzed using Prism software (GraphPad Software Inc).
# Chain of human GHS-R1a (Q92847 whole entry): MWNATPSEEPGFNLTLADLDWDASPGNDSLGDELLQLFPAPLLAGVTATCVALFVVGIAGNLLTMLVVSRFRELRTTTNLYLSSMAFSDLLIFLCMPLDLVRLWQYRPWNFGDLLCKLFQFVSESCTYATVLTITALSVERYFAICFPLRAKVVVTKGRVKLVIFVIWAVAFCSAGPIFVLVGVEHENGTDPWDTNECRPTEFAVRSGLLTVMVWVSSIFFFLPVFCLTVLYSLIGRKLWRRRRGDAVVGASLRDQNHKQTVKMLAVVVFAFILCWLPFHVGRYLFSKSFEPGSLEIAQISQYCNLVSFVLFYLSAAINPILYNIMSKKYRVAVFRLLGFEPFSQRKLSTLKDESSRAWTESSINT
row,SMILES,IC50
1,"CN(NC(=O)[C@@H](Cc1c[nH]c2ccccc12)NC(=O)[C@@H](N)Cc1cnc[nH]1)C(=O)N[C@@H](Cc1c[nH]c2ccccc12)C(=O)N[C@H](Cc1ccccc1)C(=O)N[C@@H](CCCCN)C(N)=O [DBG145, His-D-Trp-azaAla-Trp-D-Phe-Lys-NH2] (H-H[dW][AzaAla]W[dF]K-NH2)",0.809 µM
2,"CN(NC(=O)[C@@H](Cc1c[nH]c2ccccc12)NC(=O)CC1CNc2ccccc21)C(=O)N[C@@H](Cc1c[nH]c2ccccc12)C(=O)N[C@H](Cc1ccccc1)C(=O)N[C@@H](CCCCN)C(N)=O (stereo partly drawn) [DBG168-8, In—CO-D-Trp-azaAla-Trp-D-Phe-Lys-NH2] (X5-[dW][AzaAla]W[dF]K-NH2)",0.514 µM
3,"C[C@H](NC(=O)[C@@H](Cc1c[nH]c2ccccc12)NC(=O)[C@@H](N)Cc1cnc[nH]1)C(=O)NN(Cc1ccc(-c2ccccc2)cc1)C(=O)N[C@H](Cc1ccccc1)C(=O)N[C@@H](CCCCN)C(N)=O [DBG253-3, His-D-Trp-Ala-azaBip-D-Phe-Lys-NH2] (H-H[dW]A[X4][dF]K-NH2)",1.34 µM
4,"C[C@H](NC(=O)[C@@H](Cc1c[nH]c2ccccc12)NC(=O)[C@@H](N)Cc1cnc[nH]1)C(=O)NN(Cc1cccc2ccccc12)C(=O)N[C@H](Cc1ccccc1)C(=O)N[C@@H](CCCCN)C(N)=O [DBG253-6, His-D-Trp-Ala-azaNal-1-D-Phe-Lys-NH2] (H-H[dW]A[X3][dF]K-NH2)",0.723 µM

# Same assay, conditions: Table 5; read-out: IC50 Binding GHS-R1a
row,SMILES,IC50
1,"C[C@H](NC(=O)N(Cc1ccccc1)NC(=O)[C@@H](N)Cc1cnc[nH]1)C(=O)N[C@@H](Cc1c[nH]c2ccccc12)C(=O)N[C@H](C)C(=O)N[C@@H](CCCCN)C(N)=O [CP-1A(ii), His-azaPhe-Ala-Trp-D-Ala-Lys-NH2] (H-H[azaPhe]AW[dA]K-NH2)",> 10 µM
2,"C[C@H](NC(=O)[C@H](C)NC(=O)N(Cc1ccc(O)cc1)NC(=O)[C@@H](N)Cc1cnc[nH]1)C(=O)N[C@H](Cc1ccccc1)C(=O)N[C@@H](CCCCN)C(N)=O [CP-1B(iii), (D/L)His-azaTyr-Ala-Ala-D-Phe-Lys-NH2] (H-H[azaTyr]AA[dF]K-NH2)",> 10 µM
3,"C[C@H](NC(=O)[C@@H](Cc1ccccc1)NC(=O)[C@H](Cc1c[nH]c2ccccc12)NC(=O)NNC(=O)[C@@H](Cc1c[nH]c2ccccc12)NC(=O)[C@@H](N)Cc1cnc[nH]1)C(N)=O [CP-2A(i), His-D-Trp-azaGly-Trp-D-Phe-Ala-NH2] (H-H[dW][azaGly]W[dF]A-NH2)",45 µM
4,"C[C@@H](NC(=O)[C@H](Cc1c[nH]c2ccccc12)NC(=O)NNC(=O)[C@@H](Cc1c[nH]c2ccccc12)NC(=O)[C@@H](N)Cc1cnc[nH]1)C(=O)N[C@@H](CCCCN)C(N)=O [CP-2A(ii), His-D-Trp-azaGly-Trp-D-Ala-Lys-NH2] (H-H[dW][azaGly]W[dA]K-NH2)",> 10 µM
5,"C[C@H](NC(=O)NNC(=O)[C@@H](Cc1c[nH]c2ccccc12)NC(=O)[C@@H](N)Cc1cnc[nH]1)C(=O)N[C@H](Cc1ccccc1)C(=O)N[C@@H](CCCCN)C(N)=O [CP-2A(iii), His-D-Trp-azaGly-Ala-D-Phe-Lys-NH2] (H-H[dW][azaGly]A[dF]K-NH2)",> 10 µM
6,"C[C@@H](NC(=O)[C@@H](N)Cc1cnc[nH]1)C(=O)NNC(=O)N[C@@H](Cc1c[nH]c2ccccc12)C(=O)N[C@H](Cc1ccccc1)C(=O)N[C@@H](CCCCN)C(N)=O [CP-2A(iv), His-D-Ala-azaGly-Trp-D-Phe-Lys-NH2] (H-H[dA][azaGly]W[dF]K-NH2)",> 10 µM
7,"CC(C)CN(NC(=O)[C@@H](C)NC(=O)[C@@H](N)Cc1cnc[nH]1)C(=O)N[C@@H](Cc1c[nH]c2ccccc12)C(=O)N[C@H](Cc1ccccc1)C(=O)N[C@@H](CCCCN)C(N)=O [CP-2B (iv), His-D-Ala-azaLeu-Trp-D-Phe-Lys-NH2] (H-H[dA][azaLeu]W[dF]K-NH2)",> 10 µM
8,"C[C@H](NC(=O)[C@@H](C)NC(=O)[C@@H](N)Cc1cnc[nH]1)C(=O)NN(Cc1ccccc1)C(=O)N[C@H](Cc1ccccc1)C(=O)N[C@@H](CCCCN)C(N)=O [CP-3 (iii), His-D-Ala-Ala-azaPhe-D-Phe-Lys-NH2] (H-H[dA]A[azaPhe][dF]K-NH2)",> 10 µM
9,"C[C@H](N)C(=O)N[C@H](Cc1c[nH]c2ccccc12)C(=O)N[C@@H](C)C(=O)NN(Cc1ccccc1)C(=O)N[C@H](Cc1ccccc1)C(=O)N[C@@H](CCCCN)C(N)=O [CP-3 (iv), Ala-D-Trp-Ala-AzaPhe-D-Phe-Lys-NH2] (H-A[dW]A[azaPhe][dF]K-NH2)",> 10 µM
10,"C[C@H](NC(=O)[C@@H](Cc1ccccc1)NC(=O)N(Cc1ccccc1)NC(=O)[C@H](C)NC(=O)[C@@H](Cc1c[nH]c2ccccc12)NC(=O)[C@@H](N)Cc1cnc[nH]1)C(N)=O [CP-3(i), His-D-Trp-Ala-AzaPhe-D-Phe-Ala-NH2] (H-H[dW]A[azaPhe][dF]A-NH2)",> 10 µM
11,"C[C@H](NC(=O)[C@@H](Cc1c[nH]c2ccccc12)NC(=O)[C@@H](N)Cc1cnc[nH]1)C(=O)NN(Cc1ccccc1)C(=O)N[C@H](C)C(=O)N[C@@H](CCCCN)C(N)=O [CP-3(ii), His-D-Trp-Ala-azaPhe-D-Ala-Lys-NH2] (H-H[dW]A[azaPhe][dA]K-NH2)",> 10 µM
12,"NCCCC[C@H](NC(=O)[C@@H](Cc1ccccc1)NC(=O)[C@H](Cc1c[nH]c2ccccc12)NC(=O)N1CCCN1C(=O)[C@@H](Cc1c[nH]c2ccccc12)NC(=O)[C@@H](N)Cc1cnc[nH]1)C(N)=O [CP-AP_4, His-D-Trp-azaPro-Trp-D-Phe-Lys-NH2] (H-H[dW][azaPro]W[dF]K-NH2)",> 10 µM
13,"NCCCC[C@H](NC(=O)[C@@H](Cc1ccccc1)NC(=O)C1CCCN1C(=O)NNC(=O)[C@@H](Cc1c[nH]c2ccccc12)NC(=O)[C@@H](N)Cc1cnc[nH]1)C(N)=O (stereo partly drawn) [CP-AzaGly-Pro, His-D-Trp-azaGly-Pro-D-Phe-Lys-NH2]",> 10 µM
